# In patent US20100041597A1, “PEPTIDES TARGETED TO PROTEIN KINASE C ISOFORMS AND USES THEREOF” (priority 2005, published 2010):
# Target: T1, PKC-ζ (Homo sapiens, UniProt Q05513)
# T1 sequence (Q05513 1-592): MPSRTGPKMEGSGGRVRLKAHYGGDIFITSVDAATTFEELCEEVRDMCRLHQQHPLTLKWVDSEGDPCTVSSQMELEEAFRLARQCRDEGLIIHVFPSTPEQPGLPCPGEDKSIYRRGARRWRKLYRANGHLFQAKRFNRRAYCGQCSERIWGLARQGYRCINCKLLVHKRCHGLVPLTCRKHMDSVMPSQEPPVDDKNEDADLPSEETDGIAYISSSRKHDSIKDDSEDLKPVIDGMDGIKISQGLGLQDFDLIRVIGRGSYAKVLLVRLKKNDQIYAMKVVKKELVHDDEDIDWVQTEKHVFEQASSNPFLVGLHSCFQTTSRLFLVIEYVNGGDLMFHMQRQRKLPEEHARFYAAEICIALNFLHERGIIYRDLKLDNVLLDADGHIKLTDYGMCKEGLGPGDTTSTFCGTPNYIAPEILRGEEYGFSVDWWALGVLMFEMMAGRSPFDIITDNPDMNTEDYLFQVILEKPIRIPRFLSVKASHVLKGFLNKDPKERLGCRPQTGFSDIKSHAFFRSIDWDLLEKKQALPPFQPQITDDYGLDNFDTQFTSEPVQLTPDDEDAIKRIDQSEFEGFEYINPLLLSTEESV
# Test: ELISA-based competitive binding assay with purified PKC isoform
# Set-up: key to Affinity for PKC isoform ζ: —: no detectable affinity; Low to very low affinity at 10X or 20X or both PRE concentrations in at least one cell line in the cell extract assay; Low affinity in purified isoform assay.; Moderate affinity at 10X or 20X or both PRE concentrations in at least one cell line in the cell extract assay.; High affinity at 10X or 20X or both PRE concentrations in at least one cell line in the cell extract assay; High affinity in purified isoform assay
# Conditions: for inhibition at 50 µM / inhibition at 100 µM / inhibition at 200 µM / calculated binding capacity (100-% n) after subtraction of the DMSO apparent binding capacity: purified PKC-ζ; for inhibition at 50 µM / inhibition at 100 µM / inhibition at 200 µM: read-out: calculated binding capacity (100-% n) after subtraction of the DMSO apparent binding capacity; for Affinity for PKC isoform ζ: Purified isoform, Table 20
# Description: Peptides PRE 1, 2, 3, 4, 5, 6, 7, 8, 9, 10, 11, 12 and 13 (see Table 3) were tested for their ability to interfere with binding of PKC isoform-specific antibodies to their target PKC isoforms using a competitive binding assay and purified PKC isoforms.
# Procedure: Competitive binding was assessed using a 96 well plate ELISA-based assay as described below.
# Greiner 96 well ELISA plates were coated with the appropriate PKC isoform diluted in PBSN (PBS with Calcium/Magnesium+0.05% Sodium azide w/w). 50 μL/well at 250 ng/mL was used. Control wells contained PBSN only. Plates were incubated overnight at 4° C.
# The plates were washed 3 times with 200 μL of dH2O per well, then 100 μL of blocking solution was added per well and the plate incubated for 1 h at 37° C. The washing steps with dH2O were repeated and 50 μL of the appropriate PRE solution (PRE stock solution [20 mM in DMSO] diluted in PBSN) was added and the plate incubated for 1 h at room temperature.
# After incubation, 5 μL of 1.1:400 anti-PKC (isoform specific antibody) was added per well (to provide a final concentration of 1:4000). For PKC-epsilon, 1.1:800 dilution was used and for PKC-zeta a 1.1:100 dilution was used due to high and low binding affinity, respectively. The plates were then incubated 1 h at room temperature, followed by washing with dH2O as described above.
# 50 μL of 1:1000 dilution of Alkaline Phosphatase (AP) conjugated antibody (anti-rabbit for all except zeta, which was anti-goat) was then added and the plate incubated for 1 h at room temperature. Washing with dH2O was then repeated. Finally, 100 μL of pNPP solution in pNPP buffer (2 mM MgCl2, 100 mM Sodium bicarbonate in water, pH 9.8) was added to all wells and incubated for 8 minutes for α, βI, βII ε, and ζ, or for 15-20 mins for […] (until sufficient coloration is observed). The reaction was stopped by addition of Stop solution (2N NaOH) and the absorbance at 405 nm was read on a Galaxy Plate reader.
# Controls were PKC without PRE; blank controls, and controls containing the final concentrations of DMSO used for solubilizing the PREs. The non-specific binding capacity related to DMSO was also measured.
# The antibodies used were as follows: anti-PKC α (Cat. No. SC-208); anti-PKC βI (Cat. No. SC-209); anti-PKC βII (Cat. No. SC-210); anti-PKC δ (Cat. No. SC-213); anti-PKC ε (Cat. No. SC-214); anti-PKC ζ (Cat. No. SC-216-G) (all from Santa Cruz Biotechnology, Inc.). The AP-conjugated antibodies were obtained from Jackson Immuno Research Laboratories (West Grove, Pa.).
# Calculations: The OD values measured at 405 nm represent the free PKC coated per well.
# OD405 PKC alone−Blank OD405 of each sample=OD405 coated isoform
# (OD405 of sample X/OD405 coated isoform)×100=% n that represents the percentage of X binding compared to control.
# 100-% n measures the relative binding capacity of X towards the tested isoform.
# The apparent binding capacity of the DMSO samples was then subtracted from X binding capacity.
# All measurements were made in triplicate and the values in the table represent the averaged calculated binding capacity values after subtraction of the DMSO apparent binding capacity (averaged from 12 values, respectively 10.80, 11.20 and 16.40 corresponding to the concentrations of DMSO used to dilute the […] at 200, 100 and 50 μM respectively). The results allow for quantitative comparison of the binding capacity of each PRE towards an individual isoform within each table, but not among isoforms due to differences in sensitivity of the specific antibodies toward the secondary antibody. This applies particularly to PKC-delta. As noted above, the colour development duration was increased 2-3 times and, as a result, the OD405 measurements may be overestimated for this isoform.
substance,measurement,setting,value
Ac-AKGIQEVKGGDAQNLIGISI-NH2 [PRE 3],inhibition at 50 µM,PRE 50 μM,14%
same,inhibition at 100 µM,PRE 100 μM,23.9%
same,inhibition at 200 µM,PRE 200 μM,29.1%
same,Affinity for PKC isoform ζ,,H
same,targeting of PKC-ζ,"purified isoform, Tables 14-19",targeted by PRE 3 only
Ac-AKGIQEVKGGKDAQNLIGISI-NH2 [PRE 5],inhibition at 50 µM,PRE 50 μM,0%
same,inhibition at 100 µM,PRE 100 μM,0%
same,inhibition at 200 µM,PRE 200 μM,0%
same,Affinity for PKC isoform ζ,,—
Ac-ISIGILNQADK-NH2 [PRE 10],Affinity for PKC isoform ζ,,—
Ac-ISIGILQNADK-NH2 [PRE 7],Affinity for PKC isoform ζ,,—
Ac-KDANQLIGISI-NH2 [PRE 6],Affinity for PKC isoform ζ,,—
Ac-KDAQNLI-NH2 [PRE 12],calculated binding capacity (100-% n) after subtraction of the DMSO apparent binding capacity,PRE 50 μM,4.20
same,calculated binding capacity (100-% n) after subtraction of the DMSO apparent binding capacity,PRE 100 μM,8.77
same,calculated binding capacity (100-% n) after subtraction of the DMSO apparent binding capacity,PRE 200 μM,0.33
same,Affinity for PKC isoform ζ,,—
"Ac-KDAQNLIGISI-NH2 [PRE 4, Ac-KDAQNLIGISI-NH2]",inhibition at 50 µM,PRE 50 μM,0%
same,inhibition at 100 µM,PRE 100 μM,0%
same,inhibition at 200 µM,PRE 200 μM,5.85%
same,Affinity for PKC isoform ζ,,—
Ac-RDAQNLI-NH2 [PRE 13],Affinity for PKC isoform ζ,,—
Ac-RDAQNLIGISI-NH2 [PRE 11],Affinity for PKC isoform ζ,,—
Ac-isigilgnadk-NH2 [PRE 9],Affinity for PKC isoform ζ,,—
ILEDKGGDAQNLIGISI [PRE 8],Affinity for PKC isoform ζ,,—
RRKKGGKDFVVKR [PRE 1],calculated binding capacity (100-% n) after subtraction of the DMSO apparent binding capacity,PRE 50 μM,4.11
same,Affinity for PKC isoform ζ,,—
